Several values for one entry are separate records, joined by “and”; a condition that tells them apart may be missing. Equal entries are not always repeated.
Experiments:
[1] = tested on: EGFR and ErbB2 mediated signaling; test: Effect on downstream cell signaling in SKBr3 cells (Western blot); format: cell-based, human; conditions: heterodimer at 1, 5, and 20 μM
Experimental: The effect of heterodimer binding on downstream signaling was evaluated in SKBr3 cells. SKBr3 cells were seeded in 6-well flat-bottom plates. […] EGF (#E9644, Sigma) was reconstituted to 1 mg/mL using 10 mM acetic acid, diluted with 0.1% BSA, and added to SKBr3 cells at a concentration of 100 ng/mL. Lapatinib (CDS022971, Sigma) was diluted to 100 nM in DMSO and PBS from 1 mg/mL stock solution, and was added to the cells incubated with heterodimer at concentrations of 1, 5, and 20 μM in separate wells.

SKBr3 cells [2] = test: Heterodimer internalization in SKBr3 cells over time (confocal); format: cell-based, human
Experimental: Using confocal microscopy, images were collected over time to evaluate heterodimer internalization. […] Binding by anti-EGFR-AF568 (yellow) and anti-ErbB2-AF488 (green) to the surface (arrows) of the same cells is shown for comparison. On the merged images, a Pearson's correlation coefficient was measured for the heterodimer with the anti-EGFR antibody (ρ=0.77) and the anti-ErbB2 (ρ=0.65) antibody. […] The DAPI images highlight the location of cell nuclei prior to heterodimer incubation, FIG. 3B. Binding of QRH*-KSP*-E3-Cy5.5 (red) to the cell surface is seen at […]. The heterodimer starts to internalize at 4 min, and complete internalization is seen at 40 min.

[3] = Acute toxicity, histology (H&E) of major organs; format: in vivo, mice; conditions: brain, heart, kidney, liver, spleen and lung; after day 15
Experimental: (§1) Optical imaging was performed in nude mice bearing xenograft tumors in vivo to characterize pharmacokinetics and assess toxicity. All experimental procedures were performed in accordance with relevant guidelines and regulations of the University of Michigan, and all animal studies were conducted with approval by the University Committee on the Use and Care of Animals (UCUCA). Animals were housed per guidelines of the Unit for Laboratory Animal Medicine (ULAM).

OE33 xenograft tumors [4] = test: In vivo competition with unlabeled peptide monomers; set-up: species or system mice; conditions: two hours after heterodimer injection
Experimental: In vivo heterodimer specificity was assessed by competition with 3000 μM of unlabeled peptide monomer or a mixture of two monomers diluted in 50 μL of PBS injected 20 min beforehand in tumor-bearing mice (n=4 per group). Blocking studies were carried out by injecting unlabeled QRH*, KSP*, and both monomers together to validate in vivo specificity. Images were collected at two hours after heterodimer injection when peak uptake was expected. The ratio of fluorescence intensity in tumor was calculated using regions of interest (ROI), and the results were presented as mean±standard deviation (SD).

[5] = Hydrophilicity of heterodimer; format: physicochemical
OE33 xenograft tumors [6] = test: In vivo NIR fluorescence imaging of OE33 xenograft tumors (Cy5.5); set-up: species or system nude mice
Experimental: as §1
Female athymic nude mice (002019 Foxn1, Jackson Laboratories) were obtained at 4-5 weeks of age, and were housed with four animals per cage and fed with sterilized pellet chow and water. Mice were anesthetized in an isoflurane chamber, and OE33 xenograft tumors were generated by subcutaneous injection of about 5×10^7 tumor cells suspended in […] of sterile PBS in the hind limb flank. Mice were studied at about 3-4 weeks post-inoculation when the tumor volume reached about 0.5-0.8 cm in size.
In vivo fluorescence images were collected using the Xenogen IVIS™ 200 small animal imaging system. Fluorescence intensities were measured and normalized. […] Images were collected prior to peptide injection to assess baseline auto-fluorescence values and then at various time points post-injection up to 24 hours, FIG. 5A. Fluorescence images were excited at λex=675 nm, and emission was collected at λem=740 nm with 5 sec exposure (f/stop=8).

SKBr3 cells [7] = test: Confocal microscopy binding of Cy5.5-labeled heterodimer linker configurations to SKBr3 cells; format: cell-based, human; conditions: linkers E2, Hex, E3, E6, E10
Text: The two monomers were combined in a heterodimer configuration using a variable linker designed with either a PEG spacer that ranged in size from 17-74 atoms or a hydrophobic 6-aminohexonic acid linker in the α-, ξ-amino groups of the second lysine. The linker length was varied to determine the optimal spacing between monomers to maximize binding to the intended targets. Using confocal microscopy, binding for each Cy5.5-labeled heterodimer configuration to human breast cancer cells SKBr3 that overexpress both EGFR and ErbB2 was evaluated, FIG. 1B.
Hydrophilicity was good as well. Western blot analysis was used to show relative EGFR and ErbB2 expression levels, FIG. 1D. Western blot was performed by lysing cells in Pierce® RIPA lysis buffer containing Halt™ protease inhibitor cocktail (#87786, Thermo Scientific) for 30 min on ice. The lysates were centrifuged at 10,000 rpm for 10 min at 4° C. A BSA protein assay kit (#23227, Thermo Scientific) was used to quantify protein concentration in the supernatant. Aliquots of protein (10 μL) were used for electrophoresis on NuPAGE™ 4-12% Bis-Tris gels (#17031471, Invitrogen) followed by electrophoretic transfer onto membranes (#ISEQ00010, Merck Millipore Ltd). […]

OE33 cells = test: Apparent association time constant by flow cytometry with OE33 cells; format: binding, human
Experimental: The apparent association time constant (Ka) was measured to assess binding kinetics to OE33 cells. OE33 cells were grown to about 80% confluence in 10 cm dishes, and cells were then detached with PBS-based cell dissociation buffer (Invitrogen). About 10^5 cells were incubated with 1 μM of the heterodimer at 4° C. for different time periods ranging from […]. The cells were centrifuged, washed with cold PBS, and fixed with 4% PFA. Flow cytometry was performed, and the median fluorescence intensity (y) was ratioed with that of OE33 cells without addition of peptide at time points (t) using Flowjo software. The rate constant K was calculated by fitting the data to the first-order kinetics model, y(t)=Imax[1−exp^(−kt)], where Imax=maximum value, using Prism 5.0 software.

For “heterodimer of QRHKPRE (SEQ ID NO: 1) and KSPNPRF (SEQ ID NO: 2) with E3 (triethyleneglycol) linker, Cy5.5 label [QRH*-KSP*-E3-Cy5.5]”, which “phosphorylation of EGFR (p-EGFR) and ErbB2 (p-ErbB2)” value [1] is on record?
Its value is “no change”.

And the “phosphorylation of downstream AKT (p-AKT) and ERK (p-ERK)” value [1]?
The value was “no downstream change”.

What about the “time at which heterodimer starts to internalize” value (SKBr3 cells [2]) of the same substance?
The value was 4 min and 8 to 20 min.

What about the “time of complete internalization / strong signal inside cells” value (SKBr3 cells [2]) of the same substance?
Its value is 40 min.

What about the “acute toxicity on histology (H&E)” value [3] of the same substance?
Its value is “no sign of acute toxicity”.

What about the “tumor signal after prior injection of unlabeled QRH*, KSP*, or both” value (OE33 xenograft tumors [4]) of the same substance?
The value was “reduction of signal”.

What about the Hydrophilicity [5] of the same substance?
The Hydrophilicity was “good”.

And the “peak mean tumor signal versus control peptide” value (OE33 xenograft tumors [6]; about 2 hours after intravenous injection, n=6)?
Its value is “significantly greater”.

What about the “time of return of signal to baseline / systemic clearance” value (OE33 xenograft tumors [6]; intravenous, OE33 xenograft) of the same substance?
The value was “about 24 hours”.

And the “mean signal among heterodimer linker configurations” value (SKBr3 cells [7])?
Its value is “largest signal”.

And the “apparent association time constant Ka” value (OE33 cells; flow cytometry, 1 μM, 4° C.)?
Its value is 0.22 min⁻¹.

And the “apparent association time constant (time)” value (OE33 cells; value in brackets after Ka)?
The value was 4.5 min.
